Test results taken from ChEMBL document CHEMBL1201862, “PubChem BioAssay data set” (2004).
Several values for one entry are separate records, joined by “and”; a condition that tells them apart may be missing. Equal entries are not always repeated. Activity calls are given as the source filed them.

Assays:
Kallikrein-7 = Kallikrein-7 (Homo sapiens, UniProt P49862); test: Fluorescence Intensity-based biochemical primary high throughput dose response assay to identify activators of kallikrein-7 (K7) zymogen.
Sequence of Kallikrein-7 (P49862 whole entry, the tested form may be a part): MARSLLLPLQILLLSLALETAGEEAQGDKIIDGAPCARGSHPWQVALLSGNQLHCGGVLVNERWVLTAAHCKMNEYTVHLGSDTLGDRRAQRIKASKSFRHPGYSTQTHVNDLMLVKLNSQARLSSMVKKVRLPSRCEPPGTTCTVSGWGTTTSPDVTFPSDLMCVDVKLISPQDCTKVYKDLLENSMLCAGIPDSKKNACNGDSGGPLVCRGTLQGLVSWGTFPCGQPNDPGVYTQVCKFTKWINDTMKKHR

[1] = molecular target: Disintegrin and metalloproteinase domain-containing protein 17 (Homo sapiens, UniProt P78536); test: inhibition of ADAM17 substrate cleavage – biochemical, quenched FRET substrate, counter-screen for ADAM10 exosite inhibitor project, dose response (AID 743253)
Sequence of Disintegrin and metalloproteinase domain-containing protein 17 (P78536 whole entry, the tested form may be a part): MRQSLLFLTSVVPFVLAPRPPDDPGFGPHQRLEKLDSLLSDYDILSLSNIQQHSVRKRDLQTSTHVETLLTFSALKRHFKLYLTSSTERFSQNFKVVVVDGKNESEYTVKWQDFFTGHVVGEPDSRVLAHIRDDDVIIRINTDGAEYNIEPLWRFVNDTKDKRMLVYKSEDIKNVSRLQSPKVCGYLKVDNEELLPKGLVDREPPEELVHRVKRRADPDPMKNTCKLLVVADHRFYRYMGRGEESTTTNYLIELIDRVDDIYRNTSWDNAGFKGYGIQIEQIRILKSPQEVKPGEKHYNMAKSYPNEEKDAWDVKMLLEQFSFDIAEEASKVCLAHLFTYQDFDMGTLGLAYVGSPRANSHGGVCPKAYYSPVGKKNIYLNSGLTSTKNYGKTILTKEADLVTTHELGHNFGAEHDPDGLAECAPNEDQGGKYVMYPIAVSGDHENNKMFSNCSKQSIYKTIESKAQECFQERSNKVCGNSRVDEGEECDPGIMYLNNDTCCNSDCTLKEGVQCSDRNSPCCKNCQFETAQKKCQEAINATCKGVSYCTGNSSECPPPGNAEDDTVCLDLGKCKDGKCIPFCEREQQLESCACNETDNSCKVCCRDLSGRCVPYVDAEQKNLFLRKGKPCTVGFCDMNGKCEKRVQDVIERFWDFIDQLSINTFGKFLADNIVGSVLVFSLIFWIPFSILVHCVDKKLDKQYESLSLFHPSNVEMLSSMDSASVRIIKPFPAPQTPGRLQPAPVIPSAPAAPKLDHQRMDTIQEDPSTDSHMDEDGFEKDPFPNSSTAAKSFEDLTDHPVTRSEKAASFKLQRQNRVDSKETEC

[2] = NIH3T3 cell viability loss – ATP luminescence, mouse fibroblasts, counter-screen, dose response (AID 2010); format: functional, cell-based;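 further: cells exposed to compound for about 90 hours before reading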
[3] = tested on: Streptococcus sp. 'group A'; test: Streptococcus pyogenes SK(-)GAS viability under kanamycin – luminescence, BacTiterGlo, confirmation, counter-screen for streptokinase expression inhibitor project, dose response (AID 1900); format: functional, organism-based
[4] = Trypanosoma cruzi growth suppression in host cells – NIH3T3 host cells, beta-gal luminescence, confirmation (AID 2044); format: functional, cell-based;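 further: intracellular parasites grown in NIH/3T3 mouse fibroblasts as host cells; luminescent beta-galactosidase reporter signal from transgenic T. cruzi replicating inside host cells; inhibitors lower the luminescence signal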
Streptokinase A = molecular target: T1, Streptokinase A (Streptococcus pyogenes serotype M1, UniProt P10520); test: viability-normalized secreted streptokinase activity reduction – plasminogen activation absorbance, OD405, dose response (AID 1914); format: functional, Streptococcus pyogenes M1 GAS;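 further: secreted streptokinase activity via plasminogen activation per viability signal from cell pellet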
T1 sequence (P10520 whole entry): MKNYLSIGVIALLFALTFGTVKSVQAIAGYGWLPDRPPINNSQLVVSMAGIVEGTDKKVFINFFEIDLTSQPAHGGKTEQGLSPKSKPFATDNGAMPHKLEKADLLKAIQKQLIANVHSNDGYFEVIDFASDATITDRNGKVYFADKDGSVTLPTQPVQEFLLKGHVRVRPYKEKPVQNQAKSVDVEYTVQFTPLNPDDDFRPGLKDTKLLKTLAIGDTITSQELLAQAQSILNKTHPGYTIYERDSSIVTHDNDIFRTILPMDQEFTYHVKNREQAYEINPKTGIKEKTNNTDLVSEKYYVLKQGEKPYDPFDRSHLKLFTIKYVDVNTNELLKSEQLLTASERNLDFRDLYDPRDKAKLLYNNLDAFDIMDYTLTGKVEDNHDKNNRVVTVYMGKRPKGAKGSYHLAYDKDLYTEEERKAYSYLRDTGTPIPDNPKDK

Streptococcus = test: GAS UMAA2166 growth inhibition – luminescence, BacTiterGlo, counter-screen for streptokinase expression inhibitor project, dose response (AID 1915); format: functional, organism-based;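 further: potency for reduction of bacterial viability or growth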
[5] = viability loss in CEM21 cells – cell-based, plate reader, dry powder, cytotoxicity control, dose response (AID 687026); format: functional
[6] = molecular target: NAD-dependent protein deacylase sirtuin-5, mitochondrial (Homo sapiens, UniProt Q9NXA8); test: sirtuin-5 deacylation blockers, concentration series – biochemical, fluorescence imaging, cherry-pick, set 5, dose response (AID 720591);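 further: desuccinylation of succinyl peptide AMC substrate read as fluorescence after trypsin release; potency of inhibitors that lower fluorescence and may act on trypsin instead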
Sequence of NAD-dependent protein deacylase sirtuin-5, mitochondrial (Q9NXA8 whole entry): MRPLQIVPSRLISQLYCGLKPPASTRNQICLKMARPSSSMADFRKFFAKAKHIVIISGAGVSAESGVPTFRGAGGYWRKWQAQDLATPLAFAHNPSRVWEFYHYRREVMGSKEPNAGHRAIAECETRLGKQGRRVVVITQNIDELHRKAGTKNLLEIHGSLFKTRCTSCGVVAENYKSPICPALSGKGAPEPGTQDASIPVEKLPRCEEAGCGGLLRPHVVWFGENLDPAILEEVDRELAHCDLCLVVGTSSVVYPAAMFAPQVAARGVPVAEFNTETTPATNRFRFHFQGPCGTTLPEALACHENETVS

[7] = OVCAR-3 cell viability loss – plate reader, dry powder samples, PAX8 inhibitor project, dose response (AID 743044); format: functional, cell-based
[8] = A2780 cell killing – plate reader, dry powder samples, cytotoxicity control, dose response (AID 743046); format: functional, cell-based
[9] = OVCAR8 cell viability loss – plate reader, dry powder samples, PAX8 project, dose response (AID 743197); format: functional, cell-based; details: OVCAR-8
Paired box protein Pax-8 = Paired box protein Pax-8 (Homo sapiens, UniProt Q06710); test: PAX8 transcriptional activity inhibition in RMG-I – RMG-I cells, luciferase, cherry-pick, dose response (AID 687027); format: functional, cell-based;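 further: luciferase reporter driven by Pax8 target thyroperoxidase promoter measured by SteadyGlo luminescence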
Sequence of Paired box protein Pax-8 (Q06710 whole entry): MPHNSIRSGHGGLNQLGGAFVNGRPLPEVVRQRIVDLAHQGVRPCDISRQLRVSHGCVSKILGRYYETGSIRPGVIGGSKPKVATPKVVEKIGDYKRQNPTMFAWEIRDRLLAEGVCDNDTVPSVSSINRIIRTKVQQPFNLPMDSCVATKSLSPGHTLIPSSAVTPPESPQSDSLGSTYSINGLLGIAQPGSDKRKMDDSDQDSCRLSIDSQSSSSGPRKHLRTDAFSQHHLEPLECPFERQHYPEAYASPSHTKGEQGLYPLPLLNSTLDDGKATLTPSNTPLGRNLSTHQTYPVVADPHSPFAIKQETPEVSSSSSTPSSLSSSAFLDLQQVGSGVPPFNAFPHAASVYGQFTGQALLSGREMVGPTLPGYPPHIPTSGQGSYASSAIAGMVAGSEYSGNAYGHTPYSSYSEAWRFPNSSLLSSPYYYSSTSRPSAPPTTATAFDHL

[10] = viability loss in A549 lung cells – cell-based, 24 h, CellTiter-Glo luminescence, cherry-picks, cytotoxicity control, dose response (AID 1053115); format: functional; details: A549, 24 h
[11] = toxicity toward immortalized ovarian surface epithelium – cell-based, plate reader, dry powder samples, cytotoxicity control for PAX8 inhibitor project, dose response (AID 743045); format: functional
[12] = general cell-killing toxicity readout – plate reader, dry powder samples, cytotoxicity control for PAX8 inhibitor project, dose response (AID 743021); format: functional, cell-based
[13] = inhibitors acting on PAX2 in cells – cell-based, plate reader, dry powder samples, selectivity assay for PAX8 inhibitor project, dose response (AID 743048); format: functional;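 further: HEK293 cells carrying a WT1 promoter luciferase reporter driven by expressed Pax2; potency is for inhibition of Pax2 driven reporter signal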
[14] = PAX5 cellular inhibition readout – cell-based, plate reader, dry powder samples, selectivity assay for PAX8 inhibitor project, dose response (AID 743047); format: functional;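 further: HEK293 cells carrying a Pax5 driven CD19 promoter luciferase reporter; potency of inhibitors that lower reporter luminescence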
[15] = PAX8-dependent cell viability loss – plate reader, dry powder, dose response (AID 743049); format: functional, cell-based
[16] = OV-90 cell viability loss – plate reader, dry powder, SA8, PAX8 inhibitor project, dose response (AID 743149); format: functional, cell-based
[17] = COV434 cell viability loss – plate reader, dry powder, SA7, cytotoxicity control for PAX8 inhibitor project, dose response (AID 743145); format: functional, cell-based
[18] = COV362 cell viability loss – plate reader, dry powder, SA12, cytotoxicity control for PAX8 inhibitor project, dose response (AID 743144); format: functional, cell-based
[19] = Late stage counterscreen for inhibitors of Trypanosoma brucei methionyl tRNA synthetase (MetRS): Luminescence-based cell-based high throughput dose response assay to identify compounds that are cytotoxic to Jurkat human T lymphocyte cells.; format: functional
[20] = liver cell line viability loss – HepG2, luminescence plate reader, powder samples, set 2, cytotoxicity control, dose response (AID 651860); format: functional, cell-based
[21] = growth inhibition of MALME3 cells – cell-based, CellTiter-Glo luminescence, dry powder, set 5, orthogonal assay for MITF inhibitor project, dose response (AID 651584); format: functional; details: MALME-3
[22] = MITF Orthogonal Assay: MALME3 CTG Assay Measured in Cell-Based System Using Plate Reader - 2084-04_Inhibitor_Dose_DryPowder_Activity_Set6.; format: functional; details: MALME-3
[23] = growth inhibition of SK-MEL-5 melanoma cells – cell-based, CellTiter-Glo luminescence, dry powder, set 8, orthogonal assay for MITF inhibitor project, dose response (AID 651586); format: functional
[24] = cytotoxicity in MITF-independent A375 cells – cell-based, CellTiter-Glo luminescence, dry powder, set 9, counter-screen for MITF modulator project, dose response (AID 651591); format: functional; details: A-375
[25] = MITF Orthogonal Assay: SK-MEL-5 CTG Assay Measured in Cell-Based System Using Plate Reader - 2084-02_Inhibitor_Dose_DryPowder_Activity_Set7.; format: functional
[26] = MITF: Counter assay: A375 proliferation Measured in Cell-Based System Using Plate Reader - 2084-03_Inhibitor_Dose_DryPowder_Activity_Set8.; format: functional; details: A-375
[27] = inhibitors of TRPM1-promoter reporter in SK-MEL-5 – cell-based, luciferase, dry powder, set 9, MITF inhibitor project, dose response (AID 651588); format: functional
[28] = inhibitors of TRPM1-promoter reporter in SK-MEL-5 – cell-based, luciferase, dry powder, set 8, MITF inhibitor project, dose response (AID 624430); format: functional
[29] = growth inhibition of replicating M. tuberculosis, dose response, counter-screen, dry powder, IC90 (AID 651617); format: functional; details: Mycobacterium tuberculosis
[30] = inhibitors of non-replicating M. tuberculosis, dose response, luciferase, dry powder (AID 651619); format: functional; details: Mycobacterium tuberculosis
[31] = inhibitors of non-replicating M. tuberculosis, dose response, luciferase, dry powder (AID 651620); format: functional; details: Mycobacterium tuberculosis

For `Cc1oc2c(CN3CCCCC3)c(O)ccc2c(=O)c1-c1ccc(Br)cc1`, the EC50 (Kallikrein-7) was 9.73 µM (active).
For `COc1ccc(C(Nc2cc(C)ccn2)c2ccc3ccc(C)nc3c2O)cc1` (stereo unspecified), the IC50 [1] was > 69.5 µM (inactive), the EC50 [2] was 24.7 µM (active) and the EC50 [3] was 14.3 µM (active). The EC50 [4] was 2.15 µM (active), the EC50 (Streptokinase A) was > 150 µM (not active) and the EC50 (Streptococcus) was 54.9 µM (active).
For `Nc1nonc1C(=O)NCCNCc1c(OCc2ccccc2F)ccc2ccccc12`, the AC50 [5] was > 70 µM (inactive) and 60.8 µM (active).
For `CCOC(=O)C1=CCN(S(=O)(=O)c2ccc(C)cc2)C1c1cccc(Br)c1` (stereo unspecified), the AC50 [6] was > 30 µM (inactive).
In the case of `COc1ccccc1-c1ccc2c(c1)[C@H]1[C@H](CCN1C(=O)C1CCCCC1)[C@@H](CO)N2`, the AC50 [7] is reported as 18.7 µM (active), the AC50 [8] is reported as 5.38 µM (active) and the AC50 [9] is reported as 30.4 µM (active). The AC50 (Paired box protein Pax-8) was 9.8 µM (active) and the AC50 [10] was 42.1 µM (active).
With `COc1ccc(NC(=O)N2CCCCN3[C@@H](CO)[C@@H](c4ccc(C#Cc5ccccc5)cc4)[C@@H]3C2)cc1` the AC50 [11] was 37.1 µM (active), the AC50 [7] was 23.3 µM (active) and the AC50 [8] was 22.2 µM (active). The AC50 [9] was 40.1 µM (active), the AC50 (Paired box protein Pax-8) was 14.9 µM (active) and the AC50 [12] was 42.1 µM (active).
For `O=C(N1CCCCC1)[C@@]1(CCS(=O)(=O)c2ccccc2)N=C(c2ccc(OCCCO)cc2)O[C@H]1c1ccccc1`, the AC50 [13] was 49.5 µM (active), the AC50 [14] was 41.9 µM (active) and the AC50 [15] was 87.1 µM (active). For the same compound, the AC50 [7] was 64.6 µM (active), the AC50 [8] was 32.1 µM (active) and the AC50 [16] was > 100 µM (inactive). For the same compound, the AC50 [17] was > 100 µM (inactive) and the AC50 [18] was > 100 µM (inactive).
In the case of `O=C(NCc1nc2ccccc2[nH]1)C1=C[C@H](c2csc3ccccc23)C[C@H](OCCCCO)O1`, the IC50 [19] is reported as 60.3 µM (inactive).
With `Cc1cc(C)c(S(=O)(=O)Nc2nc(C(C(=O)OC(C)C)C(=O)C(F)(F)F)nc3ccccc23)c(C)c1` (stereo unspecified) the AC50 [20] was > 52 µM (inactive).
With `CCN1CCN(C2=C(Nc3ccc(F)cc3F)C(=O)c3ccccc3C2=O)CC1` the AC50 [21] was 26.3 µM (active), the AC50 [22] was 26.3 µM (active) and the AC50 [23] was > 70 µM (inactive). The AC50 [24] was > 70 µM (inactive), the AC50 [25] was 8.99 µM (active) and the AC50 [26] was > 70 µM (inactive). The AC50 [27] was 12.3 µM (active) and the AC50 [28] was 2.41 µM (active).
In the case of `[N-]=[N+]=NCCOCCNC(=O)CCCOc1ccc(CSc2nnc(-c3ccc(Cl)cc3)o2)nc1`, the IC90 [29] is reported as 62 µM (active), the IC90 [30] is reported as 8 µM (active) and the IC90 [31] is reported as 8 µM (active).
